Patent publication US12649748B2, “Wee1 inhibitor and use thereof” (JIANGSU TASLY DIYI PHARMACEUTICAL CO., LTD., priority 2021, dated 2026)

What was measured:
[1] = Plasma protein binding (PPB), human; format: in vitro ADME; conditions: 5 h dialysis, read-out: Plasma protein binding rate (%) Human (converted)
Method: (§1) Sample preparation: The compound was dissolved in DMSO to a stock solution of 10 mM, then the compound was diluted with PBS to a secondary stock solution of 0.02 mM, and then the above 0.02 mM was diluted to 1 μM using blank plasma, which was the sample to be incubated.
(§2) Dialysis set-up preparation: 400 μL of blank PBS was first added to the white wells of the equilibrated dialysis plate and 200 μL of the configured plasma sample was added to the red wells, and the dialysis plate was sealed with a sealing film.
(§3) Recovery plate preparation: Two 96-well deep-well plates, labelled T0 and T5, were prepared and all plasma samples were added at n=2. 300 μL of acetonitrile (Verapamil-HCl, 4 ng/mL) was added directly to the TO plate, followed by 50 μL of blank PBS mix well for 5 min and left to stand in a 4° C. refrigerator until the end of the incubation.
Experimental Operation: The dialysis device and the T5 plate were incubated together for 5 h in a microplate thermostatic shaker (37° C., using 300 rpm or minimum speed). At the end of the incubation, 300 μL of acetonitrile (Verapamil-HCl, 4 ng/mL) was added and 50 μL of PBS solution was added. At the end of the dialysis incubation, a new 96-well deep well plate was taken. […]

[2] = Compound pharmacokinetics in mice; format: in vivo; conditions: male ICR mice, oral gavage 10 mg/kg, plasma; for Cmax / AUC(0-inf) / half-life: mouse; for AUC(0-inf): read-out: AUCinf—Pred; for half-life: read-out: T½ (converted)
Method: To investigate the pharmacokinetic properties of the compound in mice, six male ICR mice were given the compound by oral gavage (10 mg/kg) at the corresponding dose, and each route of administration was divided into two groups: group A mice had anticoagulated whole blood collected at 5 min, 30 min, 2 h and 8 h after administration, while group B mice had anticoagulated whole blood collected at 15 min, 1 h, 4 h and 24 h after administration, isolated plasma;
The plasma concentrations of the compounds were determined by LC-MS using a standard curve calibration method. Plasma concentration-time data were fitted to pharmacokinetic parameters using Winnolin 5.2 software.

[3] = Plasma protein binding (PPB), mouse; format: in vitro ADME; conditions: 5 h dialysis, read-out: Plasma protein binding rate (%) Mouse (converted)
Method: as §1, §2, §3
Experimental Operation: The dialysis device and the T5 plate were incubated together for 5 h in a microplate thermostatic shaker (37° C., using 300 rpm or minimum speed). At the end of the incubation, 300 μL of acetonitrile (Verapamil-HCl, 4 ng/mL) was added and 50 μL of PBS solution was added. At the end of the dialysis incubation, a new 96-well deep well plate was taken. Add 50 μL of plasma well sample to the corresponding position of the 96-well plate, 300 μL of acetonitrile and 50 μL of blank PBS; take 50 μL of buffer well sample to the corresponding position of the 96-well plate, then add 300 μL of acetonitrile and 50 μL of blank plasma. Add 300 μL of acetonitrile (Verapamil-HCl, 4 ng/mL) to the plasma-containing wells of the T5 plate, and then 50 μL of PBS solution was added. Shake for 5 min to fully precipitate the proteins and centrifuge at 20,000 g for 10 min at 4° C. Add 200 μL of supernatant to 200 μL of pure water, mix well and perform LC-MS/MS analysis.
2. Data Processing and Parameter Calculation Plasma protein binding rate=[(Rpe−Rb)/Rpe]×100% Recovery=[(Rpe+Rb)/R5h]×100% Stability=(R5/R0)×100% where • Rpe=ratio of plasma-side testing sample peak area to internal standard • Rb=ratio of buffer side testing sample peak area to internal standard • R5=ratio of incubator stability sample peak area to internal standard • R0=ratio of refrigerator stability sample peak area to internal standard 3.

hERG potassium channel = target: T1, hERG potassium channel (Homo sapiens, UniProt Q12809); assay: hERG potassium channel inhibition assay (patch clamp, CHO hERG cells); format: cell-based; conditions: CHO cells overexpressing hERG potassium channel, whole cell patch clamp
T1 construct: expressed in transfected cells; host or cells: CHO (Chinese hamster ovary) stably transfected cell line
T1 sequence (Q12809 whole entry): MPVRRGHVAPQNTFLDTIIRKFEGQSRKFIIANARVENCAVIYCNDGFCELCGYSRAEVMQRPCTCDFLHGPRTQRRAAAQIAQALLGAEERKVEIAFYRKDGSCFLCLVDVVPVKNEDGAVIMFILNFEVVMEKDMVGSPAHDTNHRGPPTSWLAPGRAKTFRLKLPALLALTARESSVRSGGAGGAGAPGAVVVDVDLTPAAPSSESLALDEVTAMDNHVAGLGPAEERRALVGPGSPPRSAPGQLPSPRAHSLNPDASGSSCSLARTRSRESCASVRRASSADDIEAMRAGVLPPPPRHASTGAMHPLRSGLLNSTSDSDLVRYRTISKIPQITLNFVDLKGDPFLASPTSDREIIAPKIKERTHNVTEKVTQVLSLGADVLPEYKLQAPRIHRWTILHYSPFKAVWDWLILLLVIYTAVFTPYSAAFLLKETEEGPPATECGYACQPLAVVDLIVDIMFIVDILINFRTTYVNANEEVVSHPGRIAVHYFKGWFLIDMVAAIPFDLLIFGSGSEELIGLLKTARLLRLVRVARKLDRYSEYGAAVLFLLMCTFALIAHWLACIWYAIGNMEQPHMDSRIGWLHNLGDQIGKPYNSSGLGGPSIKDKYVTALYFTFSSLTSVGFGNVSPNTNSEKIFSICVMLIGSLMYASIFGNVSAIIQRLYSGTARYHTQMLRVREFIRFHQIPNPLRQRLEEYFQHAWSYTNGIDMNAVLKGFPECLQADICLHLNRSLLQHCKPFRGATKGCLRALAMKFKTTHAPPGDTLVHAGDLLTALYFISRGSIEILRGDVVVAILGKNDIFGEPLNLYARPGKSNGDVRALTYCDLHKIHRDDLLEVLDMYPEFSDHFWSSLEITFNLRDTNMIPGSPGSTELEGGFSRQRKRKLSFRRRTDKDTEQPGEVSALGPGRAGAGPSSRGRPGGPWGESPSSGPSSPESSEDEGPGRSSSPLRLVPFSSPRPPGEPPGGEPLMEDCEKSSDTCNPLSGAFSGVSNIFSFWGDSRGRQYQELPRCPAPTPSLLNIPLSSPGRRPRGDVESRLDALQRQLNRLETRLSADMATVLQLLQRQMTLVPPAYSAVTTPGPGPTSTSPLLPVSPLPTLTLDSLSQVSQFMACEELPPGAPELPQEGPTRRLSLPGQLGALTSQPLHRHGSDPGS
Method: The cell line used for the patch clamp assay was a 10th generation CHO cell overexpressing hERG potassium channel cDNA.
CHO hERG cells were cultured in Petri dishes or flasks at 37° C. in a 5% CO2 incubator. Cells were dropped onto circular slides 24-48 hours prior to electrophysiological experiments and cultured in cell culture medium and used for experiments after the cells had been adhered.
Compound powders are dissolved in the extracellular solution and are subjected to a routine 5 to 10 minute sonication and shaking to ensure complete dissolution of the compound.
The final concentrations of compounds used for electrophysiological assays were 5, 20 μM and the final concentration of DMSO was 0.1%.
Cell membrane currents were recorded using a HEKA EPC-10 USB patch-clamp amplifier (HEKA Elektronik, Germany).
1) A coverslip with a large number of uniformly growing individual CHO hERG cells on its surface was taken. Place in a continuous recording cell on an inverted microscope, perfused with extracellular fluid (approximately 1 ml per minute) and recorded continuously, waiting for the current to stabilize. […]
3) The extracellular solution containing the drug to be tested was then perfused and recorded until the inhibitory effect of the drug on the hERG current reached a steady state, at which point the peak tail current was the post-drug current value. […]

CYP2B6 = target: T2, CYP2B6 (Homo sapiens, UniProt P20813); assay: Inhibition of cytochrome P450, 2B6; format: in vitro ADME; conditions: CYP2B6 enzyme, pH 7.4, compound concentration 10 μM, read-out: CYP inhibition/% 2B6
T2 sequence (P20813 1-491): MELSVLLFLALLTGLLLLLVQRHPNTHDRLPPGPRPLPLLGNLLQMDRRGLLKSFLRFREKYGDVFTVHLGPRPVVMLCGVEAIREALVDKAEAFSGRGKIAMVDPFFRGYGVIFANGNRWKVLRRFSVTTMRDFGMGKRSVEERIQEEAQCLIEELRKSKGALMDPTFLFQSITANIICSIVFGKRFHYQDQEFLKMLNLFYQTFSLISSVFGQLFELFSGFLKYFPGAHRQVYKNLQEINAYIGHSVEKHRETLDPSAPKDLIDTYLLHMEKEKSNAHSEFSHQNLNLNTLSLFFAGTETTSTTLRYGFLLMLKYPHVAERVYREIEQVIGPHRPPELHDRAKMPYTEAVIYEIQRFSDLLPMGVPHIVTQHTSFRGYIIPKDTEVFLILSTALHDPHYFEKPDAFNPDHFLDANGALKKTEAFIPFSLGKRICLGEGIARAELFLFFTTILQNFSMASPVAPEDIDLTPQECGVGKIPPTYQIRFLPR
Method: (§4) Enzymatic experiments were performed to quantify the inhibition of CYP450 enzyme activity of each isoform of CYP450 by small molecule inhibitors through fluorescence generated by the oxidation of the substrate by cytochrome P450. […] The Solution B composition used for the experiment was: 40 U/mL G6PDH (Sigma-aldrich, Cat #G6378). The substrate mix was 0.05× Solution A, 0.01× Solution B, 50 mM Potassium Phosphate, 0.01 mM BOMCC/0.01 mM EOMCC/0.001 mM DBOMF. […] The data were analyzed and processed using GraphPad Prism 6 software to obtain IC50 values.

CYP2C9 = CYP2C9 (Homo sapiens, UniProt P11712); assay: Inhibition of cytochrome P450, CYP2C9; format: in vitro ADME; conditions: CYP2C9 enzyme, pH 7.4, probe BOMCC, read-out: CYP inhibition/% 2C9; for inhibition at 30 min, 1 µM: compound concentration 1 μM; for inhibition at 30 min, 10 µM: compound concentration 10 μM
Chain of CYP2C9 (P11712 whole entry): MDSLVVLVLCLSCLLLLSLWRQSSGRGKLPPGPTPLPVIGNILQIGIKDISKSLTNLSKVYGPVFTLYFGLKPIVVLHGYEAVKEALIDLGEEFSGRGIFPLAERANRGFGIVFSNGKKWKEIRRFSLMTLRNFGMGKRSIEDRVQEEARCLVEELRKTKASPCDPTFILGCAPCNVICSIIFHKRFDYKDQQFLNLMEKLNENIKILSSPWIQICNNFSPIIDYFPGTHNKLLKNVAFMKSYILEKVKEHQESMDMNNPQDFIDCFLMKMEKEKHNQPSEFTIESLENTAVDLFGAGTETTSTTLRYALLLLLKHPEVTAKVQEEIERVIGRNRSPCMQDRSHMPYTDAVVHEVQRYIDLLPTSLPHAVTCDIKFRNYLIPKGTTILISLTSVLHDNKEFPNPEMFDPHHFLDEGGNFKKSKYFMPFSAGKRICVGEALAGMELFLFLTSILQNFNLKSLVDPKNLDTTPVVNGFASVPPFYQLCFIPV
Method: as §4

SMILES | fraction unbound at 5 h, 1 µM [3] | inhibition at 30 min, 1 µM (CYP2C9) | inhibition at 30 min, 10 µM (CYP2C9) | fraction unbound at 5 h, 1 µM [1] | Cl_pred [2] | Cmax [2] | AUC(0-inf) [2] | half-life [2] | other results
CN1CCN(c2ccc(Nc3ncc4cnn(-c5cccc(N=S(C)(C)=O)n5)c4n3)cc2)CC1 [Compound 1] | 0.226 | 7.5% | 18.6% | 0.144 | 658 mL/min/kg | 169 ng/mL | 260 ng·h/mL | 1.71 h | inhibition at 5 µM (hERG potassium channel; 5 μM): 5.07%; inhibition at 20 µM (hERG potassium channel; 20 μM): 15.1%; inhibition at 30 min, 10 µM (CYP2B6): 4.38%
CS(C)(=O)=Nc1cccc(-n2ncc3cnc(Nc4ccc(N5CCOCC5)cc4)nc32)n1 [Compound 6] | – | 15.3% | 13.1% | – | – | – | – | – | –
Cc1cc(Nc2ncc3cnn(-c4cccc(N=S(C)(C)=O)n4)c3n2)ccc1N1CCC(N(C)C)CC1 [Compound 14] | 0.138 | – | – | – | – | – | – | – | –
Cc1cc(Nc2ncc3cnn(-c4cccc(N=S(C)(C)=O)n4)c3n2)ccc1N1CCN(C)CC1 [Compound 16] | 0.092 | – | – | – | – | – | – | – | –

Further lines, with some results ahead:

fraction unbound at 5 h, 1 µM [3] | inhibition at 30 min, 1 µM (CYP2C9) | inhibition at 30 min, 10 µM (CYP2C9) | SMILES | fraction unbound at 5 h, 1 µM [1] | Cl_pred [2] | Cmax [2] | AUC(0-inf) [2] | half-life [2] | other results
0.087 | – | – | C=CCn1c(=O)c2cnc(Nc3ccc(N4CCN(C)CC4)cc3)nc2n1-c1cccc(C(C)(C)O)n1 [AZD-1775, reference compound] | 0.36 | 347 mL/min/kg | 445 ng/mL | 500 ng·h/mL | 0.77 h | –
– | -10.6% | -16% | CN1CCN(c2ccc(Nc3ncc4cnn(-c5cccc(C(C)(C)O)n5)c4n3)cc2)CC1 [Compound 2] | – | – | – | – | – | –
